# What was measured:
# [1] = system: Rat type II alveolar cell, L2 cell line; test: Cell survival test (MTT analysis) under H2O2 oxidative stress; assay type: cell-based; settings: 24 hours, control group = 100%
# Protocol: The rat type II alveolar cell, L2 cell line (ATCC® CCL149™) were seeded into a 96-well plate at a density of 5×10^3 cells/well, 48 wells in total (separated into a control group and five experimental groups, 8 wells for each group). The cells were cultured until the next day, and then the mediums were removed. Each group was respectively treated under the following conditions to conduct follow-up experiments:
# (1) Control group: cells were cultured in a F-12K medium (Kaighn's Modification of Ham's F-12 Medium, ATCC® 30-2004™) for 24 hours;
# (2) Group 1: cells were cultured in a F-12K medium containing H2O2 (0.1 mM) for 24 hours;
# (3) Group 2: cells were cultured in a F-12K medium containing H2O2 (0.1 mM) and compound (1) (5 μg/ml) for 24 hours;
# (4) Group 3: cells were cultured in a F-12K medium containing H2O2 (0.1 mM) and N-acetylcysteine (NAC) (2 mM) for 24 hours;
# (5) Group 4: cells were cultured in a F-12K medium containing H2O2 (0.2 mM) and compound (1) (5 μg/ml) for 24 hours; and
# (6) Group 5: cells were cultured in a F-12K medium containing H2O2 (0.2 mM) and NAC (2 mM) for 24 hours.
# The mediums were removed after culturing was complete, and then each group was respectively treated under the following conditions: F-12K mediums containing 10% of 3-(4,5-Dimethylthiazol-2-yl)-2,5-diphenyltetrazolium bromide (MTT) were added into each well, and cultured for 1 hour. Thereafter, the mediums were removed, and a suitable amount of dimethyl sulfoxide (DMSO) was added into the wells. An Enzyme-Linked ImmunoSorbent Assay reader (ELISA reader) was then used for detecting the absorbance of each group at a wavelength of 595 nm (OD595nm). The average value of each group was respectively calculated (n=8), and then the result of the control group served as the basis for calculating the relative survival rates of the other groups.
# [2] = system: type I collagen; test: Type I collagen expression in TGF-β1-induced NHLF, western blotting (2-1); assay type: cell-based, human; settings: uninduced group = 1, TGF-β1-only group = 3.61
# Protocol: Normal Human lung fibroblasts (NHLF) were seeded into 6 cm culture dishes at a density of 2×10^5 cells/dish, comprising a control group and three experimental groups (4 dishes in total). The cells were cultured until the next day, and then the mediums were removed. Each group was respectively treated under the following conditions to conduct follow-up experiments: • (1) Positive control group: cells were cultured in a FGM-2 medium containing 1% serum for 36 hours; • (2) Negative control group: cells were cultured in a FGM-2 medium containing 1% serum and TGF-β1 (5 ng/ml) for 36 hours; • (3) Low-dose group: cells were firstly cultured in a FGM-2 medium containing 1% serum and TGF-β1 (5 ng/ml) for 12 hours, and then compound (1) was added into the medium to provide a final concentration of 15 μg/ml; thereafter, the cells were cultured for another 24 hours; and • (4) High-dose group: cells were firstly cultured in a FGM-2 medium containing 1% serum and TGF-β1 (5 ng/ml) for 12 hours, and then compound (1) was added into the medium to provide a final concentration of 25 μg/ml; thereafter, the cells were cultured for another 24 hours.
# Thereafter, the proteins in the cells of each group were extracted, and the expressions of type I collagen in the NHLF cells of each group were measured with western blotting, wherein the β-actin served as the internal control. […]
# [3] = system: TGF-β protein; test: TGF-β protein expression in NHLF, western blotting (3-1); assay type: cell-based, human
# Protocol: Normal Human lung fibroblasts (NHLF) were seeded into 6 cm culture dishes at a density of 2×10^5 cells/dish, comprising a control group and six experimental groups (7 dishes in total). The cells were cultured until the next day, and then the mediums were removed. Each group was respectively treated under the following conditions to conduct follow-up experiments: • (1) Control group: cells were cultured in a FGM-2 medium containing 10% serum for 36 hours; • (2) Group i: cells were cultured in a FGM-2 medium containing 1% serum for 36 hours; • (3) Group ii: cells were firstly cultured in a FGM-2 medium containing 1% serum for 12 hours, and then compound (1) was added into the medium to provide a final concentration of 15 μg/ml; thereafter, the cells were cultured for another 24 hours; • (4) Group iii: cells were firstly cultured in a FGM-2 medium containing 1% serum for 12 hours, and then compound (1) was added into the medium to provide a final concentration of 25 μg/ml; thereafter, the cells were cultured for another 24 hours; • (5) Group iv: cells were cultured in a FGM-2 medium containing 1% serum and TGF-β1 (5 ng/ml) for 36 hours; • (6) Group v: cells were firstly cultured in a FGM-2 medium containing 1% serum and TGF-β1 (5 ng/ml) for 12 hours, and then compound (1) was added into the medium to provide a final concentration of 15 μg/ml; thereafter, the cells were cultured for another 24 hours; and • (7) Group vi: cells were firstly cultured in a FGM-2 medium containing 1% serum and TGF-β1 (5 ng/ml) for 12 hours, and then compound (1) was added into the medium to provide a final concentration of 25 μg/ml; thereafter, the cells were cultured for another 24 hours.
# Thereafter, the proteins in the cells of each group were extracted, and the expressions of BMP-7 protein, TGF-β protein and α-SMA protein in the NHLF cells of each group were measured with western blotting, wherein the β-actin served as the internal control. The results of the control group served as the basis for calculating the relative expression levels of the other groups.
smiles,measurement,setting,value
CCCC=C1OC(=O)c2ccccc21 [compound (1)],Relative survival rate,"[1]; Group 2: H2O2 0.1 mM + compound (1) 5 μg/ml, H2O2 0.1 mM alone = 38.9%",109.4%
same,Relative survival rate,[1]; Group 4: H2O2 0.2 mM + compound (1) 5 μg/ml,80.6%
same,Relative expression level of the type I collagen (fold),"[2]; High-dose group: TGF-β1 5 ng/ml 12 h, then compound (1) 25 μg/ml 24 h",1.83 fold
same,Relative expression level of the type I collagen (fold),"[2]; Low-dose group: TGF-β1 5 ng/ml 12 h, then compound (1) 15 μg/ml 24 h",3.56 fold
same,Relative expression level (fold) TGF-β protein,"[3]; Group ii: 1% serum 12 h, then compound (1) 15 μg/ml 24 h, no TGF-β1, 10% serum control = 1, 1% serum group i = 0.66",0.63 fold
same,Relative expression level (fold) TGF-β protein,"[3]; Group iii: 1% serum 12 h, then compound (1) 25 μg/ml 24 h, no TGF-β1, 10% serum control = 1, 1% serum group i = 0.66",0.52 fold
same,Relative expression level (fold) TGF-β protein,"[3]; Group v: 1% serum + TGF-β1 5 ng/ml 12 h, then compound (1) 15 μg/ml 24 h, 10% serum control = 1, TGF-β1-only group iv = 0.80",0.79 fold
same,Relative expression level (fold) TGF-β protein,"[3]; Group vi: 1% serum + TGF-β1 5 ng/ml 12 h, then compound (1) 25 μg/ml 24 h, 10% serum control = 1, TGF-β1-only group iv = 0.80",0.59 fold

# Source: patent US20170333391A1, “METHOD FOR DELAYING THE ONSET OF PULMONARY FIBROSIS OR TREATING PULMONARY FIBROSIS” (EVERFRONT BIOTECH INC., priority 2016, published 2017)
